For twelve compounds, IC50 results are on record in patent US9447116B2, “Inhibitors of HIV replication” (priority 2010, dated 2016).

Assay [1] concerns HIV-1 virus (NL4.3 strain). As to the kind of experiment: MT-2 based antiviral assay (S8737E). Format: cell-based. The settings on record: Human immunodeficiency virus 1, 72 h, read-out: Antiviral Activity (S8737E, μM), HIV-1 NL4.3 replication in MT2 cells, 3 days, β-Gal readout in JC53BL cells. The text has this: MT-2 Based Antiviral Assay (S8737E)
This assay is designed to determine the effects of small molecules on the replication of HIV-1 in the lymphobastoid cell line, MT2, and is able to detect the antiviral effect of compounds acting at any stage of the HIV-1 replication cycle. The assay, along with its associated cytotoxicity assay, was described in detail in 2005 in a paper by Cao et al (Antimicrobial Agents and Chemotherapy 2005; 49(9), p 3833-3841).
MT2 cells are infected with the HIV-1 virus (NL4.3 strain; Adachi et al., Journal of Virology 1986) and transferred to assay plates containing serial dilutions of compounds to be tested. The assay plates are incubated for 3 days (MT2) to allow for several rounds of viral replication/infection to take place. At the end of this time, supernatant is transferred into new plates containing JC53BL cells.
JC53BL cells express CXCR4, CCR5 and CD4 receptors, and HIV-1-LTR-β-Gal. Under normal culture conditions undetectable levels of β-Galactosidase are expressed, but in the presence of HIV-1, the viral Tat protein is able to activate the HIV-1-LTR in the JC53BL cells resulting in the increased expression of the β-Gal enzyme. The expression can be measured using the ‘FluorAce β-Galactosidase reporter’ assay. The levels of β-Gal are directly proportional to the levels of Tat (up to a threshold) allowing virus quantification. Compounds that inhibit virus replication will give rise to a reduced signal and a dose-response curve for each compound can be generated. This is then used to determine the IC50 for each compound, a measure of the compound's potency.

Assay [2] deals with T1, LEDGF-Integrase interaction (Human immunodeficiency virus type 1 group M subtype B, UniProt P12497).
T1 construct: His6-tagged integrase (78 nM final concentration); purchased Prof; Zeger Debyser, Katholieke Universiteit Leuven (supplied by an academic laboratory, not a commercial vendor)
As to the kind of experiment: HTRF Interaction assay (S9118). Also on record: species or system HIV. The settings on record: His6-tagged integrase and MBP-LEDGF integrase binding domain. The text has this: • Adachi, A., Gendelman, H., Koenig, S., Folks, T., Wiley, R., Rabson, A. and Martin, M (1986) Production of acquired immunodeficency syndrome-associated retrovirus in human and nonhuman cells transfected with an infectious molecular clone, J. Virol., 59, 284-291. • Cao J, Isaacson J, Patick A K, Blair W S. (2005) High-throughput human immunodeficiency virus type 1 (HIV-1) full replication assay that includes HIV-1 Vif as an antiviral target Antimicrobial Agents and Chemotherapy; 49(9), p 3833-3841. Assay to Measure the LEDGF-Integrase Integration Inhibitory Activity of Compounds of the Invention HTRF Interaction Assay (S9118)
An Homogeneous Time Resolved Fluorescence (HTRF) assay is performed in a manner similar to previous reports on HTRF protein assays as reviewed by Mathis (Clin. Chem., 2005). The assay procedure is performed as follows: reactions are performed in 20 μl final volume in 384-well black low volume microtiter plates (Greiner). The final reaction buffer contains 29 mM phosphase buffer (pH 7), 10 mM HEPES buffet (pH 7.4), 68.5 mM NaCl, 1.4 mM KCl, 400 mM KF 0.05% (w/v) pluronic acid (P104, Sigma Aldrich) and 1% (v/v) DMSO. His6-tagged integrase (78 nM final concentration) is incubated with […] fused to the Δ325 carboxy terminal integrase binding domain of LEDGF in the presence of compound for 2 hours at room temperature. Both these protein regents are supplied by Prof. Zeger Debyser of Katholleke Universiteit Leuven, Leuven, Belgium. The compounds are added at varying concentrations spanning a wide range from 0.1 up to 100 μM. Afterwards 8.3 nM of europium cryptate conjugated anti-MBP monoclonal antibody and 17 nM anti-His antibody conjugated with the acceptor fluorophore d2. Following a 2 hour room temperature incubation the plates are read on an EnVision™ microplate reader (Perkin Elmer) using an excitation wavelength of 320 nm. The ratio of fluorescence emitted at […] is used to assess the degree to which the protein-protein interaction had been inhibited.
On the technique in general: TR-FRET usually uses a lanthanide donor and a delayed reading to cut background.

As for `Cc1nc2sc3c(c2c(-c2cccc(-n4cccn4)c2)c1C(OC(C)(C)C)C(=O)O)CCCC3` (stereo not drawn) [Example 38], the values for the IC50 in assay [1] and in assay [2] (table values) were 15.1 µM and 97500 nM, respectively.

With `COc1ncc(-c2c(C(OC(C)(C)C)C(=O)O)c(C)nc3sc4c(c23)CCCC4)cn1` (stereo not drawn) [Example 39], the IC50 in assay [1] was 15.5 µM; in assay [2] (table values), > 100000 nM.

On to `CCOC(C(=O)O)c1c(C)nc2sc3c(c2c1-c1cnn(CC)c1)CCCC3` (stereo not drawn) [Example 41], for which the IC50 was 17.7 µM in assay [1] and > 100000 nM in assay [2] (table values).

Turning to `CCOC(C(=O)O)c1c(C)nc2sc3c(c2c1-c1ccc(OC)nc1)CCCC3` (stereo not drawn) [Example 42], the IC50 is 18.1 µM in assay [1] and > 100000 nM in assay [2] (table values).

For `CCOC(C(=O)O)c1c(C)nc2sc3c(c2c1-c1ccc2c(cnn2C)c1)CCCC3` (stereo not drawn) [Example 43], the IC50 in assay [1] was 18.9 µM; in assay [2] (table values), > 100000 nM.

Consider `Cc1nc2sc3c(c2c(-c2ccc(Cl)cc2)c1[C@H](OC(C)(C)C)C(=O)O)CCCC3` [Example 44, (2S)-tert-butoxy[4-(4-chlorophenyl)-2-methyl-5,6,7,8-tetrahydro[1]benzothieno[2,3-b]pyridin-3-yl]acetic acid], for which the IC50 is 0.036 µM in assay [1] and 576 nM in assay [2].

For `Cc1nc2sc3c(c2c(-c2ccc(Cl)cc2F)c1[C@H](OC(C)(C)C)C(=O)O)CCCC3` [Example 45, (2S)-tert-butoxy[4-(4-chloro-2-fluorophenyl)-2-methyl-5,6,7,8-tetrahydro[1]benzothieno[2,3-b]pyridin-3-yl]acetic acid], the IC50 in assay [1] is 0.023 µM; in assay [2], 565 nM.

As to `Cc1ccc(-c2c([C@H](OC(C)(C)C)C(=O)O)c(C)nc3sc4c(c23)CCCC4)c(F)c1` [Example 47, (2S)-tert-butoxy[4-(2-fluoro-4-methylphenyl)-2-methyl-5,6,7,8-tetrahydro[1]benzothieno[2,3-b]pyridin-3-yl]acetic acid], the IC50 in assay [1] is 0.071 µM; in assay [2] it was 657 nM.

On to `Cc1nc2sc3c(c2c(-c2ccc(C(F)F)cc2)c1[C@H](OC(C)(C)C)C(=O)O)CCCC3` [Example 49], for which the IC50 is 0.081 µM in assay [1] and 11000 nM in assay [2].

Consider `Cc1nc2sc3c(c2c(-c2ccc(C(F)(F)F)cc2)c1[C@H](OC(C)(C)C)C(=O)O)CCCC3` [Example 50, (S)-2-(tert-butoxy)-2-(2-methyl-4-(4-(trifluoromethyl)phenyl)-5,6,7,8-tetrahydrobenzo[4.5]thieno[2,3-b]pyridin-3-yl)acetic acid], for which the IC50 in assay [1] stood at 0.055 µM; in assay [2] it was 1500 nM.

As for `Cc1nc2sc3c(c2c(-c2ccc(Br)cc2)c1[C@H](OC(C)(C)C)C(=O)O)CCCC3` [Example 51, (S)-2-(4-(4-bromophenyl)-2-methyl-5,6,7,8-tetrahydrobenzo[4,5]thieno[2,3-b]pyridin-3-yl)-2-(tert-butoxy)acetic acid], the IC50 in assay [1] is 0.08 µM; in assay [2] it was 1160 nM.

Turning to `Cc1ccc(-c2c(C(OC(C)(C)C)C(=O)O)c(C)nc3sc4c(c23)CCOC4)cc1` (stereo not drawn) [Example 52, Tert-Butoxy-(2-methy-4-p-tolyl-5,8-dihydro-6H-7-oxa-9-thia-1-aza-fluoren-3-yl)-acetic acid], the IC50 came to 0.189 µM in assay [1] and 2750 nM in assay [2].
